# Results published in US20180201594A1, “Compound pac-1 or salt thereof and pharmaceutical composition comprising same” (priority 2015, published 2018).
# Experiments:
# [1] = system: Murine Lewis lung carcinoma cell line; assay: Spontaneous metastatic cancer in mice (Lewis lung carcinoma); conditions: 100 mg/kg/d, intragastric administration
# Method: The tumors growed to 1000 mm^3 and then were randomly divided into groups for adminstration, the groups were treated after three weeks. A total of 4 groups including ZYS-1 high, medium and low (100, 50, 25 mg/kg/d, intragastric administration) and positive control (gefitinib 100 mg/kg/d, intragastric administration) groups were set. The efficacy of ZYS-1 was evaluated in terms of general survival status (food intake, activity, hair etc.), tumor inhibition rate and metastasis inhibition rate.
# The curve of tumor growth was plotted. On the next day after completing the treatment cycle, the animal was weighed. After collecting the blood, the animal was sacrificed. The tumor tissue was stripped, weighed, and the tumor inhibition rate was calculated. Store at −80 ? .
# Metastasis rate=Number of mice with metastasis/Total number of mice×100%
# Inhibition rate of metastasis loci=(average number of metastasis loci in the control group−average number of metastasis loci in the experimental group)/average number of metastasis loci in the control group×100%
# [2] = In vivo pharmacokinetic comparison in rats; conditions: male Wistar rats, 60 mg/Kg, n = 6
# Method: Twelve male Wistar rats were randomly divided into ZYS-1 group and PAC-1 group. These rats were fasted for 12 hours before administration, and fed water freely. After ZYS-1 and PAC-1 needle crystal were given at the dose of 60 mg/Kg, 0.5 mL orbital blood was collected at 0, 5, 20, 30, 45, 60, 120, 180, 240, 360, 480, 720 mins, centrifuged at 5000 r/min for 5 min. 200 μL plasma was taken. The plasma was added 3 mL acetone and vortexed for 1 min. After centrifuging at 15000 r/min for 5 min, the supernatant was collected and dried under nitrogen at 37° C., to which 200 μL acetonitrile was added to be reconstituted. After sonication for 10 min, the mixture was vortexed for 1 min, and filtered through 0.45 microporous filter membrane. The filtrate was tested by HPLC, and the plasma concentration at each time point was calculated.
# [3] = Solubility comparison of ZYS-1 and PAC-1 needle crystal (HPLC); assay type: physicochemical; conditions: organic solvent or mixture, thermodynamic from solid, room temperature
# Method: The appropriate amounts of ZYS-1 and PAC-1 needle crystal were dissolved into the appropriate amount of methanol, absolute ethanol, 95% ethanol, acetonitrile, ethyl ether, ethyl acetate, propanol, acetone, respectively, and sonicated for 1 hour, then left at room temperature for 24 hours to obtain the oversaturated solution. After centrifugation at 4000 r/min for 5 min, the supernatant was diluted appropriately and filtered through a 0.45 μm needle filter. The concentration was determined by HPLC and the solubility was calculated.
# in vivo = conditions: both sexes, ICR, mouse, in vivo, po
# From the text: (§1) Experimental materials: PAC-1 needle crystal (prepared according to the method of Quinn P. Peterson et al., J. Med. Chem. 2009, 52, 5721-5731), batch number 20090818.
# (§2) Experimental animals and feeding conditions: ICR mice, half male and half female. Body weight 20±2 g, provided by Beijing Weitonglihua Experimental Animal Technology Co., Ltd., SPF grade feeding, certificate: SCXK (Beijing) 2006-0009. Particulate feed for mouse breeding was provided by Beijing Ke'ao Xieli Feed Co., Ltd. Animals were housed in barrier-level (Grade 2) animal lab in Beijing Anzhen Hospital, fluorescent lighting, 12 h light and dark cycle, room ? temperature 22˜24 ? , humidity 40-47%, air supply 10-12 times/h, Laboratory license number: SYXK (Beijing) 2005-0028. Mice were housed in clear plastic boxes with 5 per cage separated by gender.
# (§3) The method of preparing the test drug: PAC-1 needle crystal was placed in a mortar to be finely ground. A propriate amount of PAC-1 crystal was accurately weighed, which was formulated with 0.5% CMC-Na to reach the desired concentration.
# (§4) Animals grouping: After fasting (except for water) for 11 h, according to body weight, animals were randomly divided into groups of 10 with 5 males and 5 females. There were 8 groups in total. […]. One-time intragastric administration was used in the experiment. The negative control group was orally administered an equal volume of 0.5% CMC-Na. The animals started feeding at 3 hours after administration.
# (§5) Observed indicators: immediately after administration, the observation of the responses of the animals to drugs (such as: general performance, respiration, activity, with or without convulsions, righting reflex, pain reflex, response to external stimuli and other indicators) was started. When observing and recording the symptom of toxic reaction after animal administration, the time and duration of toxicity, recovery time, and the time of animal death, the animal was immediately dissected grossly, visually observing the main organs (heart, liver, spleen, lung and kidney, stomach) to see if there is congestion, increased volume, hardens, discoloration. For survival animals, they were observed and recorded day by day whether there was delayed death and delayed toxicity reaction in 7 days. The animals were weighed and fed once every 2 days. After finishing observation for 7 days, the survival animals were dissected grossly and the situations of their main organs were observed. […]
# ICR mice = assay: in vivo
# From the text: as §1, §2, §3, §4, §5
# [4] = Solubility comparison of ZYS-1 and PAC-1 needle crystal (HPLC); assay type: physicochemical; conditions: room temperature
# [5] = both, ICR, mouse, in vivo, 7 days
# [6] = one-time intragastric administration to mice
structure (smiles),measurement,setting,value
"COc1cc2ncnc(Nc3ccc(F)c(Cl)c3)c2cc1OCCCN1CCOCC1 [Gefitinib, gefitinib, reference compound]","Body weight of the animals, End",[1],30.5 ± 5.0 g
same,Metastasis rate,[1],100%
same,Number of lung (metastasis loci),[1],6.9 ± 3.7
same,Tumor weight,[1],2.1036 ± 0.3382 g
"C=CCc1cccc(/C=N/NC(=O)CN2CCN(Cc3ccccc3)CC2)c1O [PAC-1 needle crystal, 1-Piperazineacetic acid, 4-(phenylmethyl)-2-[[2-hydroxy-3-(2-propen-1-yl)phenyl]methylene], reference compound]",AUC(0-tn),[2],320.2186357 ± 127.0767162 µg·h/mL
same,AUC(0-∞),[2],578.8993071 ± 466.830172 µg·h/mL
same,Cmax,[2],2078.7579 ± 950.561 ng/mL
same,MRT(0-tn),[2],254.3166 ± 180.2413 h
same,MRT(0-∞),[2],1501.7189 ± 1808.4213 h
same,Tmax,[2],52.5000 ± 12.5499 h
same,T½ka,[2],15.4260 ± 11.8916 h
same,T½α,[2],134.7563 ± 63.3796 h
same,V/F,[2],0.0318 ± 0.0177 L
same,ka,[2],0.0720 ± 0.0468 h⁻¹
same,ke,[2],0.0062 ± 0.0029 h⁻¹
same,lagtime,[2],8.8081 ± 4.8496 h
same,solubility at 24 h,[3]; 95% ethanol,16.4 mg/mL
same,solubility at 24 h,[3]; absolute ethanol,18.9 mg/mL
same,solubility at 24 h,[3]; acetone,81.8 mg/mL
same,solubility at 24 h,[3]; acetonitrile,20.7 mg/mL
same,solubility at 24 h,[3]; diethyl ether,3.51 mg/mL
same,solubility at 24 h,[3]; ethyl acetate,33.4 mg/mL
same,solubility at 24 h,[3]; methanol,28.2 mg/mL
same,solubility at 24 h,[3]; propanol,16 mg/mL
same,LD50 at 7 days,in vivo; LD50 95% confidence limit,451 to 675 mg/kg
same,LD50 at 7 days,in vivo; acute toxicity (LD50) dose,552 mg/kg
same,0% mortality dose,ICR mice; [5],240.1 mg/kg
same,100% mortality dose,ICR mice; [5],greater than 1000 mg/kg
same,dose without apparent toxicity,ICR mice; [5],117.7 mg/kg
same,time for most survival animals to return to normal after dosing,ICR mice; [6],≤ 3 h
same,time of death after administration (mainly),ICR mice; [6],30˜60 min
same,Solubility,[4]; Water,0.0015 mg/mL
same,solubility at 24 h,"[4]; chloroform, organic solvent or mixture, thermodynamic from solid",290 mg/mL
